The text below walks through data of publication PMC11188874, “HDAC6 Inhibition Releases HR23B to Activate Proteasomes, Expand the Tumor Immunopeptidome and Amplify T-cell Antimyeloma Activity” (Cancer Research Communications, 2024).

Bounds are passed on as bounds.

Series [1] relates to proteasome ChT-like activity in RPMI-8226 cells. The experiment in a line: Cell-based high-throughput screen of proteasome ChT-like activity (LLVY-R110). On the set-up: species or system human. The following applies: 3 µmol/L, 21 hours, then LLVY-R110 18 hours.
Series [2] deals with E.G7-Ova cells. The experiment in a line: Quantitation of […]–MHC-I complex by flow cytometry. In kind it is cell-based, mouse.
Series [3] concerns RPMI-8226 cells. The experiment in a line: Myeloma MHC-I immunopeptidome analysis by MS. It is filed as cell-based, human.
The test system of series [4] is RPMI8226 cells. The experiment in a line: Aggresome formation (Proteostat kit, flow cytometry). It is filed as cell-based, human. The settings on record: 16 h.
Series [5] relates to RPMI8226 cells. The experiment in a line: Autophagosome formation (Cyto-ID kit, flow cytometry). It is filed as cell-based, human. The settings on record: 16 h.
In series [6] the test system is MMCLs. The experiment in a line: pan-HLA-ABC presentation in MMCLs by flow cytometry. In kind it is cell-based, human. The following applies: pan-HLA ABC antibody.
The target in series [7] is T1, SIRT2 (Homo sapiens, UniProt Q8IXJ6).
T1 construct: purchased Reaction Biology (Malvern, PA)
T1 sequence (Q8IXJ6 1-389): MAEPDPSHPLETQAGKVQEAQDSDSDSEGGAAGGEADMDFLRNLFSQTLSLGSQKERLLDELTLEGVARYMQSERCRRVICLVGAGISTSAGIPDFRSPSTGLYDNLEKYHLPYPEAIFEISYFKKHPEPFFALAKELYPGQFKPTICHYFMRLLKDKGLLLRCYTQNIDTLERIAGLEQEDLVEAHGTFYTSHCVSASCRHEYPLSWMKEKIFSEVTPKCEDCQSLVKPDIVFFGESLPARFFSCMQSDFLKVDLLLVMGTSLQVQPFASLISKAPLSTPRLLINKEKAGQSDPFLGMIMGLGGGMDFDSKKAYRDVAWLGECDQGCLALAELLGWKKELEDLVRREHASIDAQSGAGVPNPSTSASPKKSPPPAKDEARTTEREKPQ
The experiment in a line: In vitro biochemical activity assay, SIRT2. The settings on record: 10-dose, 3-fold serial dilution; fluorogenic peptide p53 residues 379-382 and NAD.

Series [8] is described as follows: Cell viability, XTT assay. In kind it is cell-based. The settings on record: human, RPMI-8226 multiple myeloma cells, RPMI-8226 cells, XTT (Fig. 1C, 1D), read-out: cell viability maintained. The procedure: Cell viability was determined using the XTT assay ([23]). Briefly, 50,000 cells were added to 96-well plates in a volume of 250 µL in RPMI media that lacked phenol red. Drugs were added at indicated concentrations and plates incubated under standard conditions for 72 hours. XTT sodium salt tetrazolium reagent (Gold Biotechnology, catalog no. X-200) was diluted in PBS (1 mg/mL) containing phenazine methosulfate (PMS, 7.5 µg/mL). Cells were incubated with the XTT+PMS reagent for 3 hours at 37°C and absorbance was measured at 450 nm using a Molecular Devices i3x Spectramax plate reader.

For series [9], the target named is T2, HDAC10 (Homo sapiens, UniProt Q969S8).
T2 construct: purchased Reaction Biology (Malvern, PA)
T2 sequence (Q969S8 1-669): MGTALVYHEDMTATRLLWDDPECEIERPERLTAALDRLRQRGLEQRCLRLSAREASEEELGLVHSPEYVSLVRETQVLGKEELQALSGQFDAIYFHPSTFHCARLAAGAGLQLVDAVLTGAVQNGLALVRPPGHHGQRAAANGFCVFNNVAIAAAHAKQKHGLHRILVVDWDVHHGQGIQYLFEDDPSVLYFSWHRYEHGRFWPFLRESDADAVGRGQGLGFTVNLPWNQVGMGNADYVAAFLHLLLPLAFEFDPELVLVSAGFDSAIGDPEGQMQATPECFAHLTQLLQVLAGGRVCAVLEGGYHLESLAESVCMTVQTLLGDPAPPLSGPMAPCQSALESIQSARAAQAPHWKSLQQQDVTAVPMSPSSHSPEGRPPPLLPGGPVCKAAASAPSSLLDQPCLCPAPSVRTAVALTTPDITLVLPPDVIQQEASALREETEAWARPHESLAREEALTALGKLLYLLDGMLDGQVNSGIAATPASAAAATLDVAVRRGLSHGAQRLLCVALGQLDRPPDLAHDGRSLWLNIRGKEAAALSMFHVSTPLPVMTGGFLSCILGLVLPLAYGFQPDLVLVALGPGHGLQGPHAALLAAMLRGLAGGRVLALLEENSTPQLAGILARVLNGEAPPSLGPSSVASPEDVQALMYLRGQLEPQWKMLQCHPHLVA
The series is described as follows: In vitro biochemical activity assay, HDAC10. The following applies: at higher concentrations.

Series [10] relates to E.G7-Ova cells. The series is described as follows: B3Z T-cell hybridoma assay, annexin-V/propidium iodide. It is filed as cell-based, mouse. The following applies: pretreatment 1 µmol/L 72 hours, E:T 2:1 (Fig. 2C).
For series [11], the system named is E.G7-Ova cells. The series is described as follows: Murine MHC-I immunopeptidome analysis by MS. The settings on record: 1 µmol/L, 72 hours. In kind it is cell-based, mouse.
For series [12], the system named is 27 cancer cell lines. The following applies: 1 µmol/L, 72 hours.
In series [13] the test system is 27 cancer cell lines. The experiment in a line: Proteasome activity in a panel of cancer cell lines (LLVY-R110). The settings on record: 1 µmol/L, 72 hours.
The test system of series [14] is proteasome ChT-like activity in MMCLs. The experiment in a line: Proteasome ChT-like activity in cultured multiple myeloma cells (LLVY-R110). The following applies: RPMI-8226 cells, 1 µmol/L, 72 hours (Fig. 1B, 1D).

For `CC(C)C[C@H](NC(=O)[C@H](Cc1ccccc1)NC(=O)c1cnccn1)B(O)O` [Bortezomib], the “Fold-Decrease of proteasome ChT-like activity in the HTS” value in series [1] is on record as 4 fold. Further, the “SIINFEKL–MHC-I complex presentation (in words)” value in [2] is “reduced”. Also, in series [3] (BTZ, 18 hours), the “global peak intensity of peptides (in words)” value is recorded as “slightly decreased”, the “number of peptides decreased by at least 20-fold” value is “seven” and the “number of peptides with 2-fold or greater decrease” value is reported as 1,707 peptides. Moreover, in [4], the formation of aggresomes result was “increased”. The formation of autophagosomes entry in series [5] is recorded as “increased”.
Take `COc1ccccc1CN(C)C(=O)Cn1c(CCC(=O)O)nc2c(Cl)cccc2c1=O` [SGC-UBD253N]: in series [2], the “SIINFEKL–MHC-I complex presentation (in words)” value was “not changed”. For the same compound, in series [6], the “pan-MHC-I presentation on MMCLs” value is “did not increase”.
For `COc1ccccc1CNC(=O)Cn1c(CCC(=O)O)nc2c(Cl)cccc2c1=O` [SGC-UBD253] the same measures were “increased” and “increased pan-MHC-I presentation in a dose-dependent manner”.
Consider `Cc1ccc(C(=O)Nc2ccc(S(=O)(=O)O)c3cc(S(=O)(=O)O)cc(S(=O)(=O)O)c23)cc1NC(=O)c1cccc(NC(=O)Nc2cccc(C(=O)Nc3cc(C(=O)Nc4ccc(S(=O)(=O)O)c5cc(S(=O)(=O)O)cc(S(=O)(=O)O)c45)ccc3C)c2)c1` [Suramin], for which the IC50 in series [7] was 24.3 µM.
Consider `CN1CCc2c(c3ccccc3n2Cc2ccc(C(=O)NO)cc2)C1` [Tubastatin-A], for which the viability at 16 h, 1 µmol/L in series [8] was not below 75%. For the same compound, the “effect on HDAC10 biochemical activity” value in series [9] is “inhibited”. Further, in series [2] (normalized to untreated (Fig. 2A)), the “increase in presentation of the class I molecule–SIINFEKL complex” value was “over 3 fold”. The “number of CD8neg/annexin-V+/propidium iodide+ E.G7-Ova cells after coculture with B3Z cells” value in [10] is on record as “significantly increased”. Besides, the “peak area of SIINFEKL compared with untreated” value in series [11] was 1.5 fold. In addition, in series [3] (1 µmol/L, 72 hours), the “global peak intensity of peptides” value is listed as “approximately 2 fold”. Moreover, in series [12], the “Number of Cell Lines: Increased Class I Presentation” value was determined as 19 cell lines. For the same compound, the “Number of Cell Lines: Increased Proteasome Activity” value in series [13] was 17 cell lines. Moreover, the “Number of Cell Lines: Both Increased” value in series [13] (proteasome activity and class I presentation) came to 16 cell lines. Moreover, the “increase in proteasome activity” value in series [14] was not below 30%.
